# Values joined by “and” are separate entries in the source; they are usually repeats but may differ in a detail not shown here. Identical values can stand only once. Counter-ions that a name gives are not always drawn.
# Tests used:
# [1] = test system: rat model of post-operative pain; assay: Rat model of post-operative pain (hind paw incision), tactile allodynia by Electronic Von Frey; assay type: in vivo; details: for Tactile Pressure Post-treatment, Average per rat: average of 4 points of one rat; for % Inhibition: Δ Treatment/Δ Blank × 100% / Δ Treatment: Tactile Pressure [(Post-Treatment) − (Pre-Treatment)]: group; for % Inh per rat: individual rat; for Tactile Pressure Post-Treatment: single points (4 per rat), 24 hours after surgery
# Procedure: Lofexidine at 0.00032 and 0.0032 mg/rat injected intrathecally (ITH) was evaluated for possible analgesic activity in a rat model of post-operative pain which was induced with an incision made on the plantar surface of the hind paw. To measure tactile allodynia, a supertip with a flattened surface connected to Electrovonfrey Aesthethiometer (IITC, USA) was applied slowly and gently onto the plantar surface of the hind paw, where 4 points around the incision were identified. The endpoint is the mean withdrawal threshold values (gm) in response to von Frey filament, serving as a measure of analgesic activity. Percent inhibition was calculated as Δ treatment values (change in threshold pressure caused by treatment) relative to Δ blank values (change in threshold value caused by incision). Lofexidine.HCl was dissolved in 0.9% NaCl and at doses of 0.00032 and 0.0032 mg/rat was administered intrathecally (ITH). The dosing volume was 10 μl/rat. Male Wistar derived rats weighing 270±30 g provided by BioLasco Taiwan (under Charles River Laboratories Technology licensee) were used. Space allocation for animals was 45×23×15 cm for 6 rats. Animals were housed in APEC^R cages. All animals were maintained in a controlled temperature (22-24° C.) and humidity (60%-80%) environment with 12 hours light dark cycles for at least one week in MDS Pharma Services-Taiwan Laboratory prior to use. Free access to standard lab chow (Lab Diet, Rodent Diet, PMI Nutrition International, USA) and tap water was granted. All aspects of this work including housing, experimentation and disposal of animals were performed in general accordance with the Guide for the Care and Use of Laboratory Animals (National Academy Press, Washington, D. C, 1996). Groups of 5 male Wistar rats weighing 270±30 g were used. Prior to surgery, individual animals were acclimatised to the testing environment and baseline responses to Electronic Von Frey Aesthesiometer (2290CE Electrovonfrey®, IITC, USA) with a rigid tip were performed (Pre-Incision). Under pentobarbital (50 mg/kg, 5 ml/kg, i.p.) anesthesia, the left hind paw was aseptically prepared. A 1-cm longitudinal incision was made with a number 11 blade, through the skin and fascia of the plantar aspect of the foot, starting 0.5 cm from the proximal edge of the heel and extending toward the toes. The plantaris muscle was elevated and incised longitudinally, followed by crushing with a mosquito hemostat for 20 seconds. The muscle origin and insertion remained intact After hemostasis with gentle pressure, the skin and fascia were then closed as one layer using 4-0 silk suture. Evaluation for pain was performed at 24 hours postoperatively between 08:00 and 16:00 h. Each animal was monitored at 15, 30, 60 and 120 minutes after intrathecal administration of lofexidine.HCl. The rats were placed under inverted plexiglas cages on a wire mesh rack and a brief observation of general behavior post-injection was made. The rigid tip part of the Electronic Von Frey Aesthesiometer was applied perpendicularly from underneath the mesh floor to the four points around the wound surface of the animal with slow upward force against the paw. A positive response to tactile pressure was recorded if the paw was sharply withdrawn; ambulation was considered an ambiguous response, and in such cases, the stimulus was reapplied. Mean values from 4 points for each rat and from 5 rats in each group were calculated. Percent inhibition due to treatment relative to pre-treatment pain response was calculated according to the formula: Tactile Pressure [(Post-Treatment)−(Pre-Treatment)]/[(Pre-Incision)−(Pre-Treatment)]×100%. Inhibition by 50% or more (≧50%) is considered significant analgesic effect. Unpaired Student's t test is applied for comparison of the % inhibition values between test substance-and vehicle-treated groups. Significance is considered at P<0.05 level
# [2] = test system: nerve ligation-induced chronic pain model in rats; assay: Nerve ligation-induced chronic (neuropathic) pain model in rats, mechanical allodynia by Electronic Von Frey; assay type: in vivo, rat; details: for Tactile Pressure Post-Treatment, Average / Tactile Pressure Δ Treatment, Average: average of 5 rats; for Tactile Pressure Post-Treatment / Tactile Pressure Δ Treatment: individual rat
# Procedure: Lofexidine was evaluated for possible analgesic activity in neuropathic pain using a nerve ligation-induced chronic pain model in rats. Lofexidine HCl was administered intrathecally (ITH) at 3.2 and 10 μg/animal and analgesia was measured at 15, 30, 60 and 120 minutes post-dosing using an Electronic Von Frey Aesthesiometer (IITC, USA) with a #12 supertip. A 50% or greater (≧50%) inhibition relative to blank indicates possible analgesic activity. Lofexidine HCl at doses of 3.2 and 10 μg/animal were administered intrathecally. Sterile Saline (obtained from Sintong Biotech Company, Taiwan) was used as vehicle and dosing volume was 10 μl/animal. Male Wistar rats weighing 160 to 200 g were used. Under pentobarbital (50 mg/kg, 5 ml/kg, i.p.) anesthesia, the sciatic nerve was exposed at mid-thigh level. Three ligatures (4-0 silk suture), about 1 mm apart, were loosely tied around the nerve. The animals were then housed individually in cages with soft bedding for 7 days before testing for mechanical allodynia. On the test day, rats were placed under inverted plexiglas cages on a wire mesh rack and allowed to acclimatise for 20 to 30 minutes. Allodynia was evaluated by responsiveness to a #12 Supertip® (IITC, USA) applied beneath the mesh floor perpendicular to the central plantar surface of the left hind paw. The tip was gradually applied with sufficient force to cause slight buckling of the filament against the paw. A positive response to the applied tactile pressure, noted by sharp withdrawal of the paw, was recorded automatically by an Electronic Von Frey Aesthesiometer (2290CE Electrovonfrey®, IITC, USA). The endpoint is the withdrawal threshold (gm) to von Frey filament, serving as a measure of analgesic activity. Rats were pre-selected (for presence of allodynia) for experimentation only if the withdrawal threshold 7 days after nerve ligation (pre-treatment) was reduced by 10 grams of force relative to the response of the individual paw before nerve ligation (pre-ligation). Test substance or vehicle was administered intrathecally (3.2 μg and 10 μg/animal) to groups of 5 animals and the level of allodynia was again determined (at 15, 30, 60 and 120 minutes post-treatment). Allodynia is calculated as follows: % Inhibition=ΔTreatment/ΔBlank×100%; where Δ Treatment is Tactile Pressure [(Post-Treatment)−(Pre-Treatment)] and Δ Blank is Tactile Pressure [(Pre-Ligation)−(Pre-Treatment)]. A 50 percent or greater (≧50%) inhibition relative to blank indicates possible analgesic activity.
# chronic pelvic pain = details: given orally, dosages of up to 1200 μg per day; cited from earlier work
# [3] = systemically (orally or by intravenous injection), especially at high doses (>600 μg per day); cited from earlier work
structure (smiles),measurement,setting,value
CC(Oc1c(Cl)cccc1Cl)C1=NCCN1 (centres unmarked) [Lofexidine HCl],"Tactile Pressure Post-treatment, Average per rat","[1]; 0.00032 mg/rat ITH, 15 min.",18.0 g
same,% Inhibition: Δ Treatment/Δ Blank × 100%,"[1]; 0.00032 mg/rat ITH, 15 min.",2.6%
same,Δ Treatment: Tactile Pressure [(Post-Treatment) − (Pre-Treatment)],"[1]; 0.00032 mg/rat ITH, 15 min.",0.8 g
same,% Inh per rat,"[1]; 0.00032 mg/rat ITH, 15 min.",−7.4% and 2.5% and −5.6% and 8.0%
same,% Inhibition: Δ Treatment/Δ Blank × 100%,"[1]; 0.00032 mg/rat ITH, 30 min.",7.6%
same,Δ Treatment: Tactile Pressure [(Post-Treatment) − (Pre-Treatment)],"[1]; 0.00032 mg/rat ITH, 30 min.",2.3 g
same,% Inh per rat,"[1]; 0.00032 mg/rat ITH, 30 min.",−3.2% and 4.1%
same,Tactile Pressure Post-Treatment,"[1]; 0.00032 mg/rat ITH, 30 min.",26.0 g and 20.0 g
same,"Tactile Pressure Post-treatment, Average per rat","[1]; 0.00032 mg/rat ITH, 60 min.",22.0 g
same,% Inhibition: Δ Treatment/Δ Blank × 100%,"[1]; 0.00032 mg/rat ITH, 60 min.",4.3%
same,Δ Treatment: Tactile Pressure [(Post-Treatment) − (Pre-Treatment)],"[1]; 0.00032 mg/rat ITH, 60 min.",1.3 g
same,% Inh per rat,"[1]; 0.00032 mg/rat ITH, 60 min.",−0.7% and 3.0% and 0.8% and 7.4%
same,Tactile Pressure Post-Treatment,"[1]; 0.00032 mg/rat ITH, 60 min.",22.0 g
same,% Inhibition: Δ Treatment/Δ Blank × 100%,"[1]; 0.00032 mg/rat ITH, 120 min.",0.3%
same,Δ Treatment: Tactile Pressure [(Post-Treatment) − (Pre-Treatment)],"[1]; 0.00032 mg/rat ITH, 120 min.",0.1 g
same,% Inh per rat,"[1]; 0.00032 mg/rat ITH, 120 min.",−2.5% and −7.4% and 2.5% and 4.1% and 4.7%
same,Tactile Pressure Post-Treatment,"[1]; 0.00032 mg/rat ITH, 120 min.",21.0 g (2×) and 22.0 g and 18.0 g
same,"Tactile Pressure Post-treatment, Average per rat","[1]; 0.0032 mg/rat ITH, 15 min.",46.0 g
same,Tactile Pressure Post-Treatment,"[1]; 0.0032 mg/rat ITH, 15 min.",43.0 g and 60.0 g
same,% Inh per rat,"[1]; 0.0032 mg/rat ITH, 30 min.",47.0%
same,Tactile Pressure Post-Treatment,"[1]; 0.0032 mg/rat ITH, 30 min.",44.0 g
same,Δ Treatment: Tactile Pressure [(Post-Treatment) − (Pre-Treatment)],"[1]; 0.0032 mg/rat ITH, 60 min.",8.9 g
same,% Inh per rat,"[1]; 0.0032 mg/rat ITH, 60 min.",−3.5% and 0.9%
same,Tactile Pressure Post-Treatment,"[1]; 0.0032 mg/rat ITH, 60 min.",29.0 g
same,"Tactile Pressure Post-treatment, Average per rat","[1]; 0.0032 mg/rat ITH, 120 min.",22.0 g
same,% Inhibition: Δ Treatment/Δ Blank × 100%,"[1]; 0.0032 mg/rat ITH, 120 min.",5.5%
same,Δ Treatment: Tactile Pressure [(Post-Treatment) − (Pre-Treatment)],"[1]; 0.0032 mg/rat ITH, 120 min.",1.8 g
same,% Inh per rat,"[1]; 0.0032 mg/rat ITH, 120 min.",1.2% and 5.8% and −2.5% and −8.2%
same,"Tactile Pressure Post-Treatment, Average","[2]; 3.2 μg/animal ITH, 15 Minutes",12.5 g
same,"Tactile Pressure Δ Treatment, Average","[2]; 3.2 μg/animal ITH, 15 Minutes",1.3 g
same,Tactile Pressure Post-Treatment,"[2]; 3.2 μg/animal ITH, 15 Minutes",8.9 g and 5.8 g
same,Tactile Pressure Δ Treatment,"[2]; 3.2 μg/animal ITH, 15 Minutes",-1.8 g and -5.2 g and 8.5 g and 6.3 g and -1.1 g
same,"Tactile Pressure Δ Treatment, Average","[2]; 3.2 μg/animal ITH, 30 Minutes",-1.1 g
same,Tactile Pressure Post-Treatment,"[2]; 3.2 μg/animal ITH, 30 Minutes",7.4 g and 8.5 g and 10.0 g
same,Tactile Pressure Δ Treatment,"[2]; 3.2 μg/animal ITH, 30 Minutes",-0.5 g and -3.8 g and -0.6 g and 1.4 g and -2.0 g
same,"Tactile Pressure Post-Treatment, Average","[2]; 3.2 μg/animal ITH, 60 Minutes",9.3 g
same,"Tactile Pressure Δ Treatment, Average","[2]; 3.2 μg/animal ITH, 60 Minutes",-1.8 g
same,Tactile Pressure Post-Treatment,"[2]; 3.2 μg/animal ITH, 60 Minutes",8.7 g and 7.5 g and 6.5 g
same,Tactile Pressure Δ Treatment,"[2]; 3.2 μg/animal ITH, 60 Minutes",-2.0 g and -3.7 g and -2.1 g and 4.2 g and -5.5 g
same,"Tactile Pressure Post-Treatment, Average","[2]; 3.2 μg/animal ITH, 120 Minutes",9.2 g
same,"Tactile Pressure Δ Treatment, Average","[2]; 3.2 μg/animal ITH, 120 Minutes",-2.0 g
same,Tactile Pressure Post-Treatment,"[2]; 3.2 μg/animal ITH, 120 Minutes",8.6 g and 6.1 g and 7.9 g
same,Tactile Pressure Δ Treatment,"[2]; 3.2 μg/animal ITH, 120 Minutes",-2.1 g and -5.1 g and -2.4 g and 0.8 g and -1.2 g
same,"Tactile Pressure Δ Treatment, Average","[2]; 10 μg/animal ITH, 15 Minutes",13.0 g
same,Tactile Pressure Post-Treatment,"[2]; 10 μg/animal ITH, 15 Minutes",>36.8 g
same,Tactile Pressure Δ Treatment,"[2]; 10 μg/animal ITH, 15 Minutes",1.5 g and 11.0 g
same,Tactile Pressure Post-Treatment,"[2]; 10 μg/animal ITH, 30 Minutes",7.0 g and >31.5 g and >35.5 g
same,Tactile Pressure Δ Treatment,"[2]; 10 μg/animal ITH, 30 Minutes",-3.9 g and 4.3 g
same,Tactile Pressure Post-Treatment,"[2]; 10 μg/animal ITH, 60 Minutes",8.9 g
same,Tactile Pressure Δ Treatment,"[2]; 10 μg/animal ITH, 60 Minutes",8.4 g and 4.2 g and -2.4 g
same,"Tactile Pressure Post-Treatment, Average","[2]; 10 μg/animal ITH, 120 Minutes",11.0 g
same,"Tactile Pressure Δ Treatment, Average","[2]; 10 μg/animal ITH, 120 Minutes",0.6 g
same,Tactile Pressure Post-Treatment,"[2]; 10 μg/animal ITH, 120 Minutes",6.4 g
same,Tactile Pressure Δ Treatment,"[2]; 10 μg/animal ITH, 120 Minutes",1.4 g and -0.1 g and 5.2 g and 1.3 g and -4.9 g
same,time of peak analgesic activity post-dosing,[2]; 10 μg/animal intrathecal,30 min
same,analgesic activity at 120 minutes post-dosing,"[2]; 10 μg/animal intrathecal, 120 minutes post-dosing",no longer evident
same,effectiveness in treatment of chronic pelvic pain,chronic pelvic pain,not effective
same,common symptoms associated with systemic use,[3],"drowsiness, sedation and blood pressure and heart rate increases"
CC(Oc1c(Cl)cccc1Cl)C1=NCCN1 (centres unmarked) [Lofexidine],analgesic effect against post-operative pain,[1]; 0.00032 mg/rat ITH,slight analgesic effect
same,analgesic effect against post-operative pain,"[1]; 0.0032 mg/rat intrathecal, 15 and 30 minute time points, compared with Δ blank values",demonstrated analgesic effect
same,"analgesic activity, neuropathic pain",[2]; 3.2 μg/animal intrathecal,low levels of analgesic activity
same,"analgesic activity, neuropathic pain","[2]; 10 μg/animal intrathecal, 30 minutes post-injection",significant analgesic activity
